These results are taken from US20250195552A1, “METHODS OF USING AVERMECTIN COMPOSITIONS FOR THE TREATMENT OF INFLAMMATORY DISORDERS AND DOSING REGIMENS” (priority 2022, published 2025).

“Also recorded” adds a separate entry of the source. Where two headings read alike, the source gives them in different places.

One data set has as its system focal seizures. To be noted: cited from earlier work.
Data set [1] is described as follows: Pharmacokinetics of Ivermectin B1a in SD rat plasma after IV or oral administration. Here is the method:
Thirty-six male Sprague Dawley rats were randomly assigned into four groups, with nine male rats in each group. All animals in all groups are fasted overnight prior to the experimental date.
Blood samples were collected from 6 of 9 animals per group at 0.5, 1, 2, 3, 4, 6, 8, 24, 72, 120, 168 hours post-dose.

In data set [2] the test system is Th17-skewed human CD4+ T cells. As to the kind of experiment: Cytokine secretion in Th17-skewed CD4+ T cells (ELISA). Type of data set: cell-based. As to the method:
The supernatants were analyzed for IL-17, TL-21 and IFN-γ by ELISA.

Data set [3] deals with STAT3 and IkBα phosphorylation in human CD4+ T cells. As to the kind of experiment: Th17-induced STAT3 and IkBα phosphorylation (Western Blot). In kind it is cell-based. To be noted: Th17-skewing conditions, 2 hours. As to the method: The cell lysates were prepared and analyzed by Western Blot. One representative of three different experiments is shown.
On the technique in general: Immunoblotting shows a protein as a band on a membrane.

Data set [4] deals with human CD4+ T cells activated under Th17 skewing conditions. The data set can be described thus: FoxP3 expression (RT-PCR) and percentage of FoxP3+ T cells (Flow Cytometry). In kind it is cell-based. The settings on record: 1.5 mM of ivermectin, 5 days. Here is the method:
FoxP3, IL-17A and RORc mRNA expression levels were tested by RT-PCR (A). The percentage of FoxP3^+ T cells was determined by Flow Cytometry by using intra-cellular staining with PE-conjugated anti-Foxp3 antibody (B).
(In general: A flow cytometer gives signals particle by particle.)

The test system of another data set is human PBMCs. As to the kind of experiment: IL-17 and IFN-γ secretion in PBMCs stimulated by anti-CD3/CD28 in vitro. The settings on record: anti-CD3/CD28 stimulation, 48 hours, ELISA. Type of data set: cell-based. Here is the method: The supernatants were analyzed for IL-17 and IFN-γ by ELISA. One representative of three different experiments is shown.
In the next data set the test system is LPS-induced human PBMCs. The data set can be described thus: LPS-induced secretion of TNF-α, IL-6 and IL-23 in PBMCs. To be noted: PBMC, LPS activation for 2 days, ELISA. Type of data set: cell-based. Here is the method: The supernatants were analyzed for TNF-α, IL-6, and IL-23 by ELISA.
Data set [5] concerns TLR-induced human monocytes. As to the kind of experiment: IL-1β secretion in TLR-induced monocytes. In kind it is cell-based. To be noted: induced by LPS, Pam2CSK4 and Pam3CSK4 (100 ng/ml), 24 hours, ELISA. Here is the method:
The supernatants were analyzed for IL-1β by ELISA.
In general terms: An ELISA detects its analyte on a solid surface through an enzyme-linked reagent.

Data set [6] has as its system Monocytes-derived dendritic cells (moDC). As to the kind of experiment: TNF-α and IL-6 secretion in dendritic cells. In kind it is cell-based, human. The settings on record: moDC stimulated by Pam2CSK4 and Pam3CSK4, 24 hours, ELISA. As to the method: Monocytes-derived dendritic cells (moDC) were differentiated by culturing purified human monocytes with 25 ng/mL hGM-CSF and 50 ng/mL hTL-4 for 5-7 days to reach full differentiation. […] The supernatants were analyzed for IL-6 and TNF-α by ELISA. Bar graphs represent pooled data from 2-3 experiments.

The next data set relates to PBMCs of human subjects. As to the kind of experiment: Phase 1: IL-17 secretion in PBMCs stimulated ex vivo after oral administration. The settings on record: oral 10-120 mg, significant at 80 and 120 mg SAD and at all MAD doses, anti-CD3/CD28 48 hrs. Here is the method:
The supernatants were analyzed for IL-17 by ELISA.

The subject of the next data set is C57BL/6 mice. The data set can be described thus: Experimental autoimmune encephalomyelitis (EAE) model of MS. In kind it is in vivo, mouse. The settings on record: 1, 2, 4 mg/kg oral once daily, therapeutic from Day 14 to Day 34.
A further data set relates to Sprague-Dawley rats. The data set can be described thus: Animal model of infantile spasms (NMDA-induced). In kind it is in vivo, rat. To be noted: 2 and 4 mg/kg i.p. daily P10-P15; p<0.05. From the text: A two-stage model of infantile spasms was developed (FIG. 23A). Pregnant Sprague-Dawley rats receive two injections of betamethasone on gestational (G) day 15. Offspring of those pregnancies are used for experiments during infancy, postnatal days (P) 10-15. Spasms are induced by i.p. injection of N-methyl-D-aspartic acid (NMDA), which is graded depending on the postnatal age of the subjects.
Days of dosing were P10, P11, P12, P13, P14 and P15.

Data set [7] in a line: Ivermectin solubility determination in excipients.
Procedure: The solubility assessments were performed by continually adding a known amount of the API into each individual excipient and letting the excipient reach solubility equilibrium via API saturation (visible solid observed). The experiments were conducted at ambient conditions (25° C.) and were left to mix on a stir plate at 500 RPM for at least 72 hours.
[8] abbreviates: single IV 2 mg/kg, fasting male SD rats, n = 6.

Procedure for C57BL/6 mice: Vehicle was 1.6% DMSO in water. […] These were frozen at −20° C. Every 3 to 4 days, one aliquot was thawed and diluted with water to create a fine suspension at 0.8 mg/mL (for 4 mg/kg dosing). Final DMSO concentration was 1.6%. […] Per customer, all dosing formulations were stable for up to 4 days at 4° C. FTY720 stock solution (30 mg/mL in ethanol) was prepared for all ongoing studies. Daily, the FTY720 stock solution was diluted with water to the final dosing concentration of 0.6 mg/mL.
A balanced distribution of mice was confirmed by comparing mean day of onset, average score at EAE onset, average score on Day 14 and average weight on Day 13.
EAE was induced on Day 0 by myelin oligodendrocyte glycoprotein (MOG35-55)/complete Freund's adjuvant (CFA) immunization, followed by pertussis toxin (PTX) injections on Days O and 1. Treatment was therapeutic, starting on Day 14. […] Treatment continued through Day 34. Mice were observed through the end of the study, Day 35.
Clinical scores were assessed as follows: 1=limp tail, 2=partial hind leg paralysis, 3=complete hind leg paralysis, 4=complete hindleg and partial front leg paralysis; 5=moribund.

Consider `NC(=O)N1c2ccccc2C[C@H](O)c2ccccc21` [APTIOM, Eslicarbazepine], for which the “Placebo-adjusted >50% Focal Seizure Reduction” value with focal seizures (1200 mg) was 20%. For the same compound, the “Placebo-adjusted Median Reduction in Focal Seizure Frequency” value (shortened to “Placebo-adjusted Median Reduction”) in the data set with focal seizures (2000 mg) is given as 14-24%.
For `CCC[C@@H]1CC(=O)N([C@@H](CC)C(N)=O)C1` [BRIVIACT, Brivaracetam], in the data set on focal seizures (200 mg), the “Placebo-adjusted >50% Focal Seizure Reduction” value is 18% and the “Placebo-adjusted Median Reduction” value is listed as 26%.
The AUC(0-t) is exposure summed from dosing to a finite time, without extrapolation to infinity. Low readings indicate low exposure, high ones high exposure. Usually Cmax stands for the peak of the concentration-time curve. Turning to `CCC(C)C1OC2(CCC1C)CC1CC(CC=C(C)C(OC3CC(OC)C(OC4CC(OC)C(O)C(C)O4)C(C)O3)C(C)C=CC=C3COC4C(O)C(C)=CC(C(=O)O1)C34O)O2` (stereo not drawn) [Ivermectin], in data set [1] (setting [8]), the “AUC(0-t)” value was 8259.31 ng·h/mL. Moreover, the “AUC(0-∞)” value in data set [1] (setting [8]) turned out to be 8273.53 ng·h/mL. Further, the Cmax in data set [1] (setting [8]) is 1722.67 ng/mL. The “MRT(0-t)” value in [1] (setting [8]) is recorded as 10.58 h. Moreover, in data set [1] (setting [8]), the “MRT(0-∞)” value came out at 10.81 h. In addition, the T1/2 in data set [1] (setting [8]) stood at 14.82 h; in data set [1] (single IV injection 2 mg/kg, male SD rats with fasting) it was 14.82 ± 0.72 h. The EC50 was found to be 0.378 µM in [2] (Th17-skewing conditions, additional experiment (FIG. 6B), read-out: EC, inhibition of CXCL13 secretion); 0.541 µM in [2] (anti-CD3/CD28 + IL-1β + TGF-β (Th17-skewing), 48 hours, ELISA, read-out: EC50, inhibition of IFN-γ secretion); 0.45 µM in data set [2] (anti-CD3/CD28 + IL-1β + TGF-β (Th17-skewing), 48 hours, ELISA, read-out: EC50, inhibition of IL-17 secretion); 0.364 µM in data set [2] (anti-CD3/CD28 + IL-1β + TGF-β (Th17-skewing), 48 hours, ELISA, read-out: EC50, inhibition of IL-21 secretion); 0.987 µM with human PBMCs (read-out: EC50, decrease of IFN-γ); 0.416 µM in the data set with human PBMCs (read-out: EC50, decrease of IL-17). Moreover, the EC50 came to 1.3 µM with LPS-induced human PBMCs (read-out: EC50, decrease of IL-6); 0.47 µM in the data set with LPS-induced human PBMCs (read-out: EC50, decrease of IL-23); 1.4 µM in the data set with LPS-induced human PBMCs (read-out: EC50, decrease of TNF-α). Further, in data set [3], the STAT3 phosphorylation result is “dose-dependent reduction”. Moreover, in data set [3], the “inhibitor molecule protein (IkB)α phosphorylation” value is “dose-dependent reduction”. In data set [4] (Flow Cytometry), the “increase in the percentage of Foxp3+ T cells” value is listed as 50%. Also, the “FoxP3 mRNA levels” value in data set [4] (RT-PCR) is reported as “up-regulation”. In addition, in data set [4] (RT-PCR), the “IL-17A mRNA expression” value is “decreased”. The “RORc mRNA expression” value in data set [4] (RT-PCR) is on record as “decreased”. Besides, the IL-1β secretion result in data set [5] is “significantly down-regulates; also recorded: reduced IL-1β in a dose-dependent manner”. Further, the IL-6 secretion result in data set [6] was “significantly and in a dose-dependent manner down-regulates; also recorded: dose dependent decrease”. Besides, in data set [6], the TNF-α secretion entry is “significantly and in a dose-dependent manner down-regulates; also recorded: dose dependent decrease”. Moreover, the “ability of T cells to secrete IL-17 in response to TCR stimulation ex vivo” value in the data set with PBMCs of human subjects was “down-regulates”. Also, the “limb paralysis (clinical score) in EAE model of MS” value in the data set on C57BL/6 mice was “significantly downregulates limb paralysis”. For the same compound, the “occurrence (number) of spasms triggered on P15 vs vehicle controls” value in the data set on Sprague-Dawley rats is on record as “significantly suppressed occurrence of spasms; also recorded: significantly fewer spasms”. Also, the Solubility is 150.92 mg/g in data set [7] (in Capryol 90, 25° C.); 16.55 mg/g in data set [7] (in Fractionated Coconut oil, 25° C.); below 0.1 mg/g in [7] (in Glycerin, 25° C.); 95.85 mg/g in data set [7] (in Kolliphor EL, 25° C.); 35.32 mg/g in data set [7] (in Labrafil M 2125 CS, 25° C.); 126.36 mg/g in [7] (in Labrasol ALF, 25° C.). Also, the Solubility in data set [7] (in LauroglycolTM FCC, 25° C.) was determined as 71.96 mg/g; in data set [7] (in Maisine CC, 25° C.), 60.17 mg/g; in [7] (in Masester E8120, 25° C.) it was 164.06 mg/g; in data set [7] (in Medium Chain Triglyceride, 25° C.), 16.49 mg/g; in [7] (in Oleic acid, 25° C.), 48.58 mg/g; in data set [7] (in Olive oil, 25° C.), 4.71 mg/g. Further, the Solubility in data set [7] (in PEG 400, 25° C.) was 112.92 mg/g; in data set [7] (in Propylene glycol, 25° C.), 25.61 mg/g; in data set [7] (in Soybean oil, 25° C.), 6.72 mg/g; in data set [7] (in Span 20, 25° C.) it was 97.66 mg/g; in data set [7] (in Span 80, 25° C.), 54.04 mg/g; in data set [7] (in Triacetin, 25° C.), 58.75 mg/g. The Solubility amounted to 88.26 mg/g in data set [7] (in Tween 80, 25° C.) and 82.98 mg/g in data set [7] (in Vitamin E TPGS, table title 25° C., text: conducted at 40° C.).
Regarding `CC[C@@H](C(N)=O)N1CCCC1=O` [KEPPRA, Leviteracetam], in the data set with focal seizures (3000 mg), the “Placebo-adjusted >50% Focal Seizure Reduction” value was 29% and the “Placebo-adjusted Median Reduction” value is given as 23-31%.
In the case of `COC[C@@H](NC(C)=O)C(=O)NCc1ccccc1` [VIMPAT, Lacosamide], in the data set on focal seizures (400 mg), the “Placebo-adjusted >50% Focal Seizure Reduction” value is 17% and the “Placebo-adjusted Median Reduction” value is given as 15-29%.
Turning to `NC(=O)O[C@@H](Cn1ncnn1)c1ccccc1Cl` [XCOPRI, Cenobamate], the “Placebo-adjusted >50% Focal Seizure Reduction” value in the data set on focal seizures (400 mg) is reported as 39%. Besides, the “Placebo-adjusted Median Reduction” value with focal seizures (4200 mg) is reported as 31%.
For the compound `Cc1cc(N2CCc3cc(F)ccc3C2)cc(C)c1NC(=O)CC(C)(C)C` [XEN1101], in the data set with focal seizures (25 mg), the “Placebo-adjusted >50% Focal Seizure Reduction” value is given as 40% and the “Placebo-adjusted Median Reduction” value is reported as 35%.
